Data as given in US20050215531A1, “Use of edg receptor binding agents in cancer” (priority 2002, published 2005).

How the values were obtained:
Assay type in all cases: cell-based, human
E-Selectin = E-Selectin expression in endothelial cells
tissue factor = assay: Clotting assay, tissue factor activity on HUVEC
Experimental: (§1) Human umbilical vein endothelial cells (HUVEC) are cultured at 37° C. and 5% CO2 in medium M199 supplemented with 20% SCS (HyClone, Logan, Utah), 1 U/ml heparin, 50 μg/ml ECGS, 2 mM glutamine, 100 U/ml penicillin and 0.1 mg/ml streptomycin. Cells are used for experiments up to passage number 5. Short-starved HUVEC are obtained by starving with 1% SCS-containing M199 for 5 h. Recombinant human VEGF165 is obtained from PromoCell (Heidelberg, Germany). Phospho-specific ERK½, p3B kinase polyclonal antibodies, nonphospho ERK½ antibodies and LumiGLO chemiluminescent reagent are from New England BioLabs (Beverly, Mass.), polyclonal IKB antibodies from Santa Cruz Biotechnology (Santa Cruz, Calif.). Peroxidase-conjugated donkey anti-rabbit immunoglobulin G (IgG) and sheep anti-mouse IgG are purchased from Amersham LIFE SCIENCE (Amersham Place, England). lmmobilon-P transfer membranes are products of Millipore (Bedford, Mass.). S is obtained from Sigma Chemical Co.; S1P is from Biomol. Compound A-phosphate stock solution is prepared by the following protocol. Compound A-phosphate is dissolved in methanol tracing with concentrated HCl (0.5 mg Compound A-phosphate in 500 μl of methanol plus 2 μl of HCl). Solvent from the resulting solution is evaporated under vacuum and the residue obtained is redissolved (variant 1) in 0.1% of defatted BSA solution in sterile deionized water (500 μl) or (variant 2) in 0.5% Triton X-100 in deionized water. The resulting stock solutions (2.5 mM) are sonicated and stored at 4° C.
Cells are seeded in 6-well plates at 80-90% confluency and grown overnight. Cells are scraped from the plates and analyzed for tissue factor activity according to the method as described in Clauss, M., J. Biol. Chem. 271,17629-17634 (1996), Mechtcheriakova, D., Blood 93,3811-3823 (1999). Briefly, after induction for 4 hours with VEGF (1.5 nM), TNF-α (100 U/ml), S (0.5-2 μM), S1P (0.5-2 μM), Compound A (0.5-2 μM), and Compound A-phosphate (0.5-2 μM), cells are washed twice and then scraped in 1 ml clotting buffer (12 mM sodium acetate, 7 mM diethylbarbitate and 130 mM sodium chloride; pH 7.4). 50 μl of resuspended cells are mixed with 50 μl of citrated plasma, and clotting times are determined after recalcfication with 50 μl of 20 mM CaCl2 solution at 37° C. TF-equivalents are determined by using a standard curve obtained from rabbit brain thromboplastin.
An important characteristic feature of both classical inflammatory stimulus TNF-α and the main angiogenic growth factor VEGF on endothellal cells is their potency to upregulate tissue factor. Compound A, Compound A-phosphate, S or S1P are tested whether they also do induce tissue factor on HUVEC. […] The data obtained together indicate that Compound A, Compound A-phosphate, S and S1P mechanistically work distinctly to anglogenic VEGF and inflammatory TNF-α.

p38 kinase = assay: Western blot, p38 kinase activation in HUVEC
Experimental: as §1, with “Solvent from the resulting solution is evaporated under vacuum and the residue obtained is redissolved (variant 1) in 0.1% of defatted BSA solution in sterile deionized water (500 μl) or (variant 2) in 0.5% Triton X-100 in deionized water. The resulting stock solutions (2.5 mM) are sonicated and stored at 4° C.” left out

SMILES: CCCCCCCCc1ccc(CCC(N)(CO)COP(=O)(O)O)cc1 (centres unmarked) [Compound A-phosphate]
- E-Selectin expression (E-Selectin): fail to induce
- effect on TNF-α-induced tissue factor (tissue factor; TNF-α 100 U/ml): not TNF-α-induced
- effect on VEGF-induced tissue factor (tissue factor; VEGF 1.5 nM): slightly enhance
- tissue factor activity (tissue factor; compound alone or in combinations, 0.5-2 μM, 4 hours): none of these compounds alone or in combinations may elevate tissue factor activity
- activation of p38 kinase (p38 kinase): No activation
